Results from US9644240B2, “Disease susceptibility” (Leiden University, priority 2009, dated 2017).
Where a chain is given by its changes, count along the chain named.

Legend:
[1] = test system: four MR haplotypes; test: Ligand induced transactivation on a TAT-3 promoter in Cos-1 cells, comparison among haplotypes; type: cell-based, human; conditions: for difference in transactivation responses among the four MR haplotypes: reporter (fluc)/control (rluc) ratios, three experiments pooled
Method: (§1) Cos-1 cells (African green monkey kidney cells) were cultured in DMEM high glucose supplemented with 10% FCS (Gibco, Paisley, UK). Cells were seeded in 24-well plates (Greiner Bio-One, Alphen a/d Rijn, The Netherlands) at 3×10^4 cells/well in DMEM supplemented with charcoal-stripped serum. The cells were transfected the next day using SuperFect (Qiagen, Venlo, The Netherlands). hMR plasmids and the reporter plasmid TAT3-Luc (tyrosine amino transferase triple hormone response element) were used at 100 ng/well. The control plasmid pCMV-R (Promega, Leiden, The Netherlands) coding for Renilla luciferase controlled by cytomegalovirus (CMV) promoter was used (10 ng/well). One day after transfection, the cells were treated with cortisol (Sigma-Aldrich, Zwijndrecht, the Netherlands) in concentrations ranging from 0 to 10^−8 M. After 24 h of incubation the cells were harvested in passive lyses buffer (Promega) and firefly and Renilla luciferase activity was determined using a dual label reporter assay (Promega) and a luminometer (CENTRO XS3 LB960, Berthold, Bad Wildbad, Germany). Three separate experiments were performed and all three experiments were performed in triplicate.
(§2) The in vitro experiments were analyzed using GraphPad prism 4 (GraphPad software Inc, San Diego, Calif.). In the transactivation assays firefly/renilla luciferase ratios were normalized against the highest signal and background expression was subtracted. MR protein expression measured by western blot was normalized against γ-Tubulin. The differences between the four hMR variants were analyzed with one and two-way ANOVAs with Bonferroni posttests. In the radioligand binding assay one-binding-site curve fitting was used to determine the dissociation constant (Kd) and maximal binding (Bmax). The specific MR cortisol binding was obtained by subtracting the non-specific binding from the total binding. The difference in Kd and Bmax between MRI180 and MR180V was tested with a t-test. In vitro results are shown as the mean±SD.

[2] = target: T1, MR Hap 1 (GA) (Homo sapiens, UniProt P08235); test: Cortisol-induced transactivation assay, TAT3-Luc reporter in Cos-1 cells; type: cell-based; conditions: TAT-3 promoter, 24 h, read-out: EC50 of cortisol-induced luciferase transcription
T1 construct: expressed in transfected cells; host or cells: Cos-1 cells (African green monkey kidney)
T1 sequence (P08235 1-984): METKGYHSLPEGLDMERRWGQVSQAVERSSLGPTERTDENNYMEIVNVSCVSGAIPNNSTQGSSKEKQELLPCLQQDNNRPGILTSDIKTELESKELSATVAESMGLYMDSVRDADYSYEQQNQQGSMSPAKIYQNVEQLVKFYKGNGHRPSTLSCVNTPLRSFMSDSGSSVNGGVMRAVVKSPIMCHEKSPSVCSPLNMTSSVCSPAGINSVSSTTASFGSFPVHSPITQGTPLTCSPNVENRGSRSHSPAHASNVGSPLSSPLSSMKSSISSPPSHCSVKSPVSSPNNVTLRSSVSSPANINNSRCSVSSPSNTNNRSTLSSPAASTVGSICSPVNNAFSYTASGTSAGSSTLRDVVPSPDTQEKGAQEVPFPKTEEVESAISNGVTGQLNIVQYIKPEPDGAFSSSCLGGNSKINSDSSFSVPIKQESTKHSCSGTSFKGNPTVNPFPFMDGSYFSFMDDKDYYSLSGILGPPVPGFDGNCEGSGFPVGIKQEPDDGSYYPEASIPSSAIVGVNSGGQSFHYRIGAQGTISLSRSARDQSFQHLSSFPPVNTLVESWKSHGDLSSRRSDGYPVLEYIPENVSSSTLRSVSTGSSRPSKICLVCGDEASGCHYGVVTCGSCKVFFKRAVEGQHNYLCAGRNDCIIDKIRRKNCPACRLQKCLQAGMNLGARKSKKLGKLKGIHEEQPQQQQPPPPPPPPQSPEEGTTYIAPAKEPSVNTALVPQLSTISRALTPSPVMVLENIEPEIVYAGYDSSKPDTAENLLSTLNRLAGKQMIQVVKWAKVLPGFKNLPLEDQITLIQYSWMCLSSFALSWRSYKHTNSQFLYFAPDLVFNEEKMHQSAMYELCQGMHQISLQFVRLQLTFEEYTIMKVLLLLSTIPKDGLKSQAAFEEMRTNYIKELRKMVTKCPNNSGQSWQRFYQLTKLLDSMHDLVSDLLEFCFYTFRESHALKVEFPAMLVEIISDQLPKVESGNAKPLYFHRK
Method: as §1
as §2, with “binding.” for “binding. The difference in Kd and Bmax between MRI180 and MR180V was tested with a t-test. In vitro results are shown as the mean±SD.”

[3] = target: T2, MR Hap 2 (CA) (Homo sapiens, UniProt P08235); test: as above; type: cell-based; conditions: TAT-3 promoter, 24 h, read-out: EC50 of cortisol-induced luciferase transcription
T2 construct: expressed in transfected cells; host or cells: Cos-1 cells (African green monkey kidney)
T2 sequence (P08235 1-984): T1 sequence (P08235 1-984)
Method: as §1
as §2, with “binding.” for “binding. The difference in Kd and Bmax between MRI180 and MR180V was tested with a t-test. In vitro results are shown as the mean±SD.”

[4] = target: T3, MR Hap 3 (CG) (Homo sapiens, UniProt P08235); test: as above; type: cell-based; conditions: TAT-3 promoter, 24 h, read-out: EC50 of cortisol-induced luciferase transcription
T3 construct: expressed in transfected cells; host or cells: Cos-1 cells (African green monkey kidney)
T3 sequence (P08235 1-984 V241A): T1 sequence (P08235 1-984) with V241A
Method: as §1
as §2, with “binding.” for “binding. The difference in Kd and Bmax between MRI180 and MR180V was tested with a t-test. In vitro results are shown as the mean±SD.”

[5] = target: T4, MR Hap 4 (GG) (Homo sapiens, UniProt P08235); test: as above; type: cell-based; conditions: TAT-3 promoter, 24 h, read-out: EC50 of cortisol-induced luciferase transcription
T4 construct: expressed in transfected cells; host or cells: Cos-1 cells (African green monkey kidney)
T4 sequence (P08235 1-984 V241A): T1 sequence (P08235 1-984) with V241A
Method: as §1
as §2, with “binding.” for “binding. The difference in Kd and Bmax between MRI180 and MR180V was tested with a t-test. In vitro results are shown as the mean±SD.”

[6] = target: T5, MR180V (Homo sapiens, UniProt P08235); test: [3H]Cortisol ligand binding assay, cytosol of transfected Cos-1 cells; conditions: mean±SD
T5 construct: expressed in transfected cells; host or cells: Cos-1 cells (African green monkey kidney)
T5 sequence (P08235 1-984): T1 sequence (P08235 1-984)
Method: (§3) Cos-1 cells were seeded in 20 cm plates (Greiner Bio-One, Alphen a/d Rijn, The Netherlands) at 2×10^6 cells/plate in DMEM supplemented with 5% charcoal-stripped serum. Cells were transfected the next day using Mirus Transit-COS reagent according to the manufacturer's protocol (Sopachem, Ochten, The Netherlands) and hMR plasmids were used at 30 μg/plate. After 24 hours medium was replaced with serum free DMEM and after another 24 hours cells were pelleted. All further steps are carried out at 0° C. Cells were resuspended in 3.5 ml buffer (5 mM Tris-HCl (pH 7.4), 1 mM EDTA, 1 mM B-Mercaptoethanol, 10 mM Na-Molybdate, 5% glycerol) per plate and 3×15 seconds homogenised using an electric homogenizer (Pro200, Pro scientific, Oxford, Conn., USA). The homogenate was centrifuged (100.000×g, 2° C.) to obtain cytosol.
(§4) 200 μl cytosol was incubated with [^3H]Cortisol (70 Ci/mmol, Amersham, Buckinghamshire, UK) to asses total binding or [^3H]Cortisol and a 500 fold excess of dexamethasone (Sigma-Aldrich, Zwijndrecht, the Netherlands) to asses non-specific binding. [^3H]Cortisol was used at 0.5 nM, 1 nM, 1.5 nM, 2.5 nM, 3.5 nM, 5 nM. After vortexing and 3 hours incubation on ice bound and free [^3H]Cortisol fractions were separated by Sephadex LH-20 as described previously (de Kloet et al., 1975). Fractions containing the receptor bound radioligand were collected, vortexed with 3 ml Ultima Gold scintillation fluid (Perkin Elmer, Waltham, Mass., USA) and radioactivity was measured in a liquid scintillation analyzer (1900CA Packard, Perkin Elmer). Three separate experiments were performed and all three experiments were performed in triplicate.
as §2, with “binding.” for “binding. The difference in Kd and Bmax between MRI180 and MR180V was tested with a t-test. In vitro results are shown as the mean±SD.”

[7] = target: T6, MRI180 (Homo sapiens, UniProt P08235); test: as above; conditions: MRI180, mean±SD
T6 construct: expressed in transfected cells; host or cells: Cos-1 cells (African green monkey kidney)
T6 sequence (P08235 1-984): T1 sequence (P08235 1-984)
Method: as §3, §4
as §2, with “binding.” for “binding. The difference in Kd and Bmax between MRI180 and MR180V was tested with a t-test. In vitro results are shown as the mean±SD.”

[8] = three experiments pooled, read-out: dissociation constant (Kd) of cortisol binding

**Q.** With C[C@]12CCC(=O)C=C1CC[C@@H]1[C@@H]2[C@@H](O)C[C@]2(C=O)[C@@H](C(=O)CO)CC[C@@H]12 [Aldosterone] as the compound, how does the “difference in transactivation responses among the four MR haplotypes” value [1] read?
**A.** The value was “did not show significantly different responses”.

**Q.** For C[C@]12CCC(=O)C=C1CC[C@@H]1[C@@H]2[C@@H](O)C[C@@]2(C)[C@H]1CC[C@]2(O)C(=O)CO [cortisol], which EC50 [2] is on record?
**A.** Its EC50 is 0.039 nM.

**Q.** And the EC50 [3]?
**A.** Its EC50 is 0.017 nM.

**Q.** And the EC50 [4]?
**A.** Its EC50 is 0.019 nM.

**Q.** And the EC50 [5]?
**A.** The EC50 was 0.073 nM.

**Q.** And the “maximal binding (Bmax) of cortisol” value [6]?
**A.** The value was 7112±371 binding sites/cell.

**Q.** And the Kd [6, 8]?
**A.** Its Kd is 0.93 ± 0.16 nM.

**Q.** And the “maximal binding (Bmax) of cortisol” value [7]?
**A.** Its value is 6539±499 binding sites/cell.

**Q.** And the Kd [7, 8]?
**A.** The Kd was 0.86 ± 0.2 nM.

**Q.** And the “maximal luciferase expression (Emax)” value ([1]; Hap 1 (GA) and 4 (GG) compared with Hap 2 (CA) and 3 (CG))?
**A.** Its value is “significant lower maximal luciferase expression (Emax)”.

**Q.** What about the “difference in transactivation responses among the four MR haplotypes” value [1] of the same compound?
**A.** Its value is “significantly different responses”.
